Results reported in PubChem BioAssay (NCI).
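Cells were grown in 96-well plates and exposed to each compound for 48 hours at five concentrations; endpoints were interpolated linearly between bracketing concentrations, or set to the highest concentration if not reached. TGI marks complete inhibition of growth.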

Key:
Assay in all cases: NCI-60 cell line screen, 48 h
A549 NSCLC = tested on: A549 NSCLC
BT-549 breast = tested on: BT-549 breast
CCRF-CEM leukemia = tested on: CCRF-CEM leukemia
COLO 205 colon = tested on: COLO 205 colon
HCT-116 colon = tested on: HCT-116 colon
MDA-MB-435 = tested on: MDA-MB-435
OVCAR-3 ovarian = tested on: OVCAR-3 ovarian
SF-295 CNS = tested on: SF-295 CNS
SK-MEL-28 melanoma = tested on: SK-MEL-28 melanoma
SNB-75 CNS = tested on: SNB-75 CNS
U251 CNS = tested on: U251 CNS

Row | Compound | TGI (A549 NSCLC) | TGI (BT-549 breast) | TGI (CCRF-CEM leukemia) | TGI (COLO 205 colon) | TGI (HCT-116 colon) | TGI (MDA-MB-435) | TGI (OVCAR-3 ovarian) | TGI (SF-295 CNS) | TGI (SK-MEL-28 melanoma) | TGI (SNB-75 CNS) | TGI (U251 CNS)
1 | C=CCC(CNC(=O)OCc1ccccc1)O[Si](C)(C)C(C)(C)C (centres undefined) | > 100 µM | > 100 µM | > 100 µM | 30.8 µM | 73.7 µM | > 100 µM | > 100 µM | > 100 µM | > 100 µM | > 100 µM | 79.5 µM
2 | O=C1/C(=C/c2ccccc2)CCc2ccc(Cl)nc21 | 38.4 µM | 32.1 µM | 5.75 µM | 40.5 µM | 7 µM | 30.4 µM | 46.9 µM | 38.2 µM | 39.6 µM | 47.5 µM | 16 µM
3 | CN(C(=O)C1(C(=O)C=[N+]=[N-])CC1)c1ccccc1 | > 100 µM | > 100 µM | > 100 µM | > 100 µM | > 100 µM | > 100 µM | > 100 µM | > 100 µM | > 100 µM | > 100 µM | > 100 µM
4 | O=C(C1=C(C(=O)c2ccccc2)SC2(S1)C(C(=O)c1ccccc1)=C(C(=O)c1ccccc1)Sc1c2ssc1=O)c1ccccc1 | > 100 µM | > 100 µM | > 100 µM | > 100 µM | > 100 µM | > 100 µM | > 100 µM | > 100 µM | > 100 µM | > 100 µM | > 100 µM
5 | N#Cc1c(Nc2ccc(F)cc2)[n+]([O-])c2ccc(Cl)cc2[n+]1[O-] | 35.9 µM | 74.4 µM | > 100 µM | 4.52 µM | > 100 µM | > 100 µM | 13.3 µM | 4.95 µM | > 100 µM | 74.6 µM | 19.1 µM
6 | Cc1cc2ccccc2n1CC(=O)NCC(C)C | > 100 µM | > 100 µM | > 100 µM | > 100 µM | > 100 µM | > 100 µM | > 100 µM | > 100 µM | > 100 µM | > 100 µM | > 100 µM
7 | Nc1ccc2c(c1)C(=O)c1ccccc1-2 | > 100 µM | 83.5 µM | > 100 µM | > 100 µM | > 100 µM | > 100 µM | > 100 µM | > 100 µM | > 100 µM | > 100 µM | > 100 µM
8 | CC1=C(C(=O)OCCc2ccc([N+](=O)[O-])cc2)C(c2ccccc2[N+](=O)[O-])C(C(=O)OC(C)C)=C(C)N1 (centres undefined) | > 100 µM | 71.2 µM | 23.2 µM | > 100 µM | > 100 µM | > 100 µM | > 100 µM | > 100 µM | > 100 µM | > 100 µM | > 100 µM
9 | CC(NC(=O)/C(=C/c1ccccc1O)NC(=O)c1ccccc1)C(=O)O (centres undefined) | > 100 µM | 50.2 µM | > 100 µM | > 100 µM | > 100 µM | > 100 µM | – | 38.8 µM | > 100 µM | 31.1 µM | > 100 µM
10 | O=C(N/N=C\c1cccc2ccccc12)Nc1ccc([N+](=O)[O-])cc1 | > 100 µM | > 66.4 µM | > 100 µM | > 60.7 µM | > 53.7 µM | > 100 µM | 38.3 µM | > 100 µM | > 100 µM | > 100 µM | > 100 µM
11 | COC(=O)[C@H](C)N1C(=O)N[C@@H](C(C)C)C1=O | > 100 µM | > 100 µM | > 100 µM | > 100 µM | > 100 µM | > 100 µM | > 100 µM | > 100 µM | > 100 µM | > 100 µM | > 100 µM
12 | COC(=O)c1sc(=S)sc1SCc1ccccc1CSc1sc(=S)sc1C(=O)OC | > 100 µM | > 100 µM | 87.6 µM | > 100 µM | > 100 µM | > 100 µM | > 100 µM | > 100 µM | > 100 µM | > 100 µM | > 100 µM
13 | COc1ccc(C(O)c2ccc3c(c2)OCO3)cc1 (centres undefined) | > 100 µM | > 100 µM | > 100 µM | > 100 µM | > 100 µM | > 100 µM | > 100 µM | > 100 µM | > 100 µM | > 100 µM | > 100 µM
14 | CCOC(=O)c1ccc2nc(NC(=O)COC(=O)CSc3nc(C)cc(C)n3)sc2c1 | > 100 µM | > 100 µM | 15.5 µM | > 100 µM | > 100 µM | > 100 µM | 91.5 µM | > 100 µM | > 100 µM | 60.4 µM | > 100 µM
15 | Cc1cc(C)c(S(=O)(=O)N(CCCCN)OCCCN)c(C)c1 | 36.1 µM | 33.8 µM | 38.3 µM | 22.7 µM | 30.9 µM | 30.7 µM | 36.3 µM | 37 µM | 32.4 µM | 27.5 µM | 28.8 µM
16 | CC(=O)NC1C(CO)O[C@@H]2OC(C)(C)O[C@H]12 (some centres undefined) | > 100 µM | > 100 µM | > 100 µM | – | > 100 µM | > 100 µM | > 100 µM | > 100 µM | > 100 µM | > 100 µM | > 100 µM
